# Reference: US10370538B2 (priority 2015, dated 2019)
# Entries after “also recorded” stand apart in the source; their conditions may differ.
# Tests used:
# BCG [1] = format: cell-based, Mycobacterium bovis; conditions: 10 μM, no washing
# [2] = system: patients' clinical sputum samples; experiment: staining of patients' processed sputum samples; format: cell-based; conditions: 10 μM, 1 h, room temperature
# Procedure: FIG. 15 is a series of digital fluorescence confocal microscope images of CDG-DNB2 stained patients' processed sputum samples. Processed sputum samples were centrifuged and resuspended in 10 μM CDG-DNB2 for 1 h at room temperature. Cells were pelleted and washed stringently 3 times with PBS before fixation with 10% formalin for 30 min. Cells were further visualized using a confocal microscope at 20× or 60×/Ex 490-Em520.
# Clinical study with CDG-DNB2: Probe CDG-DNB2 has been evaluated in patients' clinical sputum samples: 4 positive and 4 negative samples.
# [3] = system: E. coli expressing TEM1-β-lactamase; format: cell-based
# BCG [4] = format: cell-based, Mycobacterium bovis; conditions: 10 μM, room temperature, 1 h, washed
# [5] = system: Mycobacterium tuberculosis H37Rv; format: cell-based
# mycobacteria = conditions: reported in the literature; cited from earlier work
# [6] = target: M. smegmatis DprE1 protein (Mycolicibacterium smegmatis, UniProt A0R607); experiment: fluorescence labeling of purified DprE1 protein by dye-DNB analogues in the presence of M. smegmatis lysate; format: biochemical; conditions: for covalent fluorescence labeling of DprE1 protein: 10 μM probe, in the presence of M. smegmatis lysate
# M. smegmatis = conditions: 10 μM, room temperature, 1 h, washed
# Procedure: FIGS. 5A-5C illustrate freshly cultured E. coli (TOP10), S. pneumoniae, S. aureus, S. sanguinis, C. propinquum, C. striatum and M. smegmatis were incubated with PBS, 10 μM of TG, TG-DNB1 or TG-DNB2 at room temperature for 1 h. Cells were washed stringently with PBS for 3 times then fixed in 10% formalin solution for 30 min before vizualized with a confocal microscope (63×/oil, Ex/Em-FITC).
# The fold increasing (F/FPBS) was calculated by normalizing against the fluorescence intensity of PBS-treated cells. Experiments were performed twice with similar results.
# Freshly cultured E. coli (TOP10), E. coli expressing TEM1-β-lactamase, S. pneumoniae, S. aureus, S. sanguinis, C. propinquum, C. striatum, and M. smegmatis were incubated with PBS, 10 μM CDG1, CDG-DNB1, or CDG-DNB2 at room temperature for 1 h. Cells were washed 3 times PBS and then fixed in 10% formalin solution for 30 min before analyzed with a confocal microscope under 63×/oil, Ex/Em-FITC.
# The fluorescence intensity of PBS treated cells of each strain was arbitrarily set as 1 to show the fold increasing (F/FPBS).
# M. smegmatis DprE1 protein, sequence (A0R607 whole entry): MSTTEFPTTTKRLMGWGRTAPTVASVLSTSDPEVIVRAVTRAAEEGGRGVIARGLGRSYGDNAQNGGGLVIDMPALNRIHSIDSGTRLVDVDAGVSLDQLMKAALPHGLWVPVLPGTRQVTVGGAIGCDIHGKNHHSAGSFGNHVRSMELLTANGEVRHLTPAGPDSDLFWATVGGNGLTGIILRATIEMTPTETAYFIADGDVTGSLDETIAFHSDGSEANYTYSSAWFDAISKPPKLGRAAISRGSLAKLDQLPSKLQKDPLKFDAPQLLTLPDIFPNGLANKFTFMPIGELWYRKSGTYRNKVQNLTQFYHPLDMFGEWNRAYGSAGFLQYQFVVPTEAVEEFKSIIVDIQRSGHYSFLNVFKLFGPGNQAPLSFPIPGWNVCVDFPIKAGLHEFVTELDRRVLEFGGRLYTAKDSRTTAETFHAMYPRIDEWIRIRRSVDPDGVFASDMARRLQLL
compound,measurement,setting,value
Cc1cc(OCCNC(=O)c2cc([N+](=O)[O-])cc([N+](=O)[O-])c2)ccc1-c1c2ccc(=O)cc-2oc2cc(OCc3ccc(OCC4=C(C(=O)O)N5C(=O)[C@@H](NC(=O)Cc6ccccc6)[C@H]5SC45CC5)cc3)ccc12 [CDG-DNB2],time at which prominent fluorescence was observed,BCG [1]; imaged every 2.5 min from 5 min,15 min
same,continuous enhancement of fluorescence till,BCG [1]; time at which imaging was stopped,75 min
same,staining of negative sputum samples,[2]; 4 negative samples,all the negative samples had little background fluorescence
same,staining of positive sputum samples,[2]; 4 positive samples,4 positive samples all displayed green fluorescence-stained bacteria
same,hydrolysis of probe by TEM1 β-lactamase-transformed E. coli,[3],can hydrolyze CDG-DNB2 and generate the uncaged fluorescent signal
same,retention of fluorescence in TEM1 β-lactamase-transformed E. coli,[3],cannot retain the fluorescence
same,staining of BCG (confocal),BCG [4],exhibited an intense (green) fluorescent signal
same,"fold increase of fluorescence intensity over control levels, H37Rv",[5],about 20 fold
same,staining of H37Rv (confocal),[5],exhibited an intense (green) fluorescent signal
"COc1ccc(OCCNC(=O)c2cc([N+](=O)[O-])cc([N+](=O)[O-])c2)cc1 [DNB1, reference compound]",antimycobacterial activity,mycobacteria,potent antimycobacterial agents
same,DprE1 labeling by TG-DNB analogues after pre-incubation with DNB1,[6]; DprE1SM incubated with 50 μM DNB1 for one hour prior to addition of TG-DNB1,abolished the band
Cc1cc(OCCn2cc(CNC(=O)c3cc([N+](=O)[O-])cc([N+](=O)[O-])c3)nn2)ccc1-c1c2ccc(=O)cc-2oc2cc(O)ccc12 [TG-DNB1],covalent fluorescence labeling of DprE1 protein,[6],significantly higher labeling capability than did the two mononitro compounds; also recorded: a fluorescent band was observed
COc1ccc(-c2c3ccc(=O)cc-3oc3cc(OCc4ccc(OCC5=C(C(=O)O)N6C(=O)[C@@H](NC(=O)Cc7ccccc7)[C@H]6SC5)cc4)ccc23)c(C)c1 [CDG-1],trapping of fluorescence signal in or on M. smegmatis cells,M. smegmatis,cannot be trapped in or on the cells
Cc1cc(OCCNC(=O)c2cc([N+](=O)[O-])cc([N+](=O)[O-])c2)ccc1-c1c2ccc(=O)cc-2oc2cc(O)ccc12 [TG-DNB2],covalent fluorescence labeling of DprE1 protein,[6],significantly higher labeling capability than did the two mononitro compounds; also recorded: a fluorescent band was observed
C[C@H]1COC2(CCN(c3nc(=O)c4cc(C(F)(F)F)cc([N+](=O)[O-])c4s3)CC2)O1 [BTZ043],antimycobacterial activity,mycobacteria,potent antimycobacterial agents
